Key:
[1] = molecular target: T1, xanthine oxidase (Bos taurus, UniProt P80457); assay: Test for xanthine oxidase inhibitory activity; assay type: biochemical; conditions: xanthine oxidase derived from milk (Sigma); substrate xanthine; uric acid production at OD 292 nm, 37° C.
T1 construct: derived from milk; manufactured by Sigma; purchased Sigma; host or cells: milk (natural source)
Procedure: Evaluation of inhibitory activity of the present invention to xanthine oxidase was conducted using xanthine as a substrate by measuring the amount of uric acid produced by xanthine oxidase which is an oxidizing enzyme therefor. Thus, xanthine oxidase (0.01 unit/L, 20 μL/well; derived from milk; manufactured by Sigma), diethylenetriamine pentaacetate (0.01 mol/L, 20 μL/well), phosphate buffer (20 μL/well), distilled water (100 μL/well) and a diluted solution (20 μL/well) of a test substance were mixed in a 96-well quartz microplate. After preincubating for 5 minutes in a microplate spectrophotometer warmed at 37° C., xanthine (1 mmol/L, 20 μL/well) was added. The changes with elapse of time in OD 292 nm based on the production of uric acid was measured using a microplate spectrophotometer warmed at 37° C. whereby the initial reaction velocity was measured. Xanthine oxidase inhibitory activity was calculated by the following formula and concentration of the test substance for 50% suppression (IC50 value) was calculated.
Inhibition Rate(%)={[(Initial Reaction Velocity of the Reaction Control)-(Initial Reaction Velocity upon Addition of Test Substance)]/[Initial Reaction Velocity of the Reaction Control]}×100

[2] = system: model rats of fructose-loaded hypertriglyceridemia; assay: Model rats of fructose-loaded hypertriglyceridemia: action for lowering of uric acid in serum; assay type: in vivo; conditions: Rattus norvegicus, po; male SD rats, 75% fructose solution for three days; 100 mg/kg orally once daily; serum 2 hours after final administration; read-out: Inhibition Rate (%) Action for lowering of uric acid
Procedure: (§1) The test was conducted according to a method of Kusama, et al. (Folia Pharmacologica Japonica, volume 92, pages 175 to 180, 1988). Thus, male rats of SD strain of 6 to 7 weeks age were made in free access to a 75% (w/v) D(−)-fructose solution for three days. During the period of fructose ingestion, a test substance (100 mg/kg) was suspended in 1% methyl cellulose and orally administered once daily. After 2 hours from the final administration, about 500 μL per rat of blood was collected using a hematocrit capillary from orbital venous plexus under anesthetization with ether and centrifuged (3000 rpm at 4° C. for 20 minutes) whereupon the serum was prepared.
(2) Action for Lowering of Uric Acid in Serum
Uric acid value in the serum was measured by a Uric acid C-Test Wako (manufactured by Wako Pure Chemical Industries, Ltd.) using the above serum and each uric acid lowering rate was determined by the following formula.
Uric Acid Lowering Rate(%)={[(Uric Acid Value of Control Animal)-(Uric Acid Value of Animals Administered with Test Substance)]/[Uric Acid Value of Control Animal]}×100

[3] = system: model rats of fructose-loaded hypertriglyceridemia; assay: Model rats of fructose-loaded hypertriglyceridemia: action for lowering of triglyceride in serum; assay type: in vivo; conditions: Rattus norvegicus, po; male SD rats, 75% fructose solution for three days; 100 mg/kg orally once daily; serum 2 hours after final administration; read-out: Inhibition Rate (%) Action for lowering of triglyceride
Procedure: as §1
(1) Action for Lowering of Triglyceride in Serum
The triglyceride (TG) in the serum was measured by a Triglyceride E-Test Wako (manufactured by Wako Pure Chemical Industries, Ltd.) and each TG lowering rate was determined by the following formula.
TG Lowering Rate(%)={[(TG Value of Control Animal)−(TG Value of Animal Administered with Test Substance)]/[(TG Value of Control Animal)-(TG Value of Untreated Animal)]}×100

T1 sequence (P80457 whole entry): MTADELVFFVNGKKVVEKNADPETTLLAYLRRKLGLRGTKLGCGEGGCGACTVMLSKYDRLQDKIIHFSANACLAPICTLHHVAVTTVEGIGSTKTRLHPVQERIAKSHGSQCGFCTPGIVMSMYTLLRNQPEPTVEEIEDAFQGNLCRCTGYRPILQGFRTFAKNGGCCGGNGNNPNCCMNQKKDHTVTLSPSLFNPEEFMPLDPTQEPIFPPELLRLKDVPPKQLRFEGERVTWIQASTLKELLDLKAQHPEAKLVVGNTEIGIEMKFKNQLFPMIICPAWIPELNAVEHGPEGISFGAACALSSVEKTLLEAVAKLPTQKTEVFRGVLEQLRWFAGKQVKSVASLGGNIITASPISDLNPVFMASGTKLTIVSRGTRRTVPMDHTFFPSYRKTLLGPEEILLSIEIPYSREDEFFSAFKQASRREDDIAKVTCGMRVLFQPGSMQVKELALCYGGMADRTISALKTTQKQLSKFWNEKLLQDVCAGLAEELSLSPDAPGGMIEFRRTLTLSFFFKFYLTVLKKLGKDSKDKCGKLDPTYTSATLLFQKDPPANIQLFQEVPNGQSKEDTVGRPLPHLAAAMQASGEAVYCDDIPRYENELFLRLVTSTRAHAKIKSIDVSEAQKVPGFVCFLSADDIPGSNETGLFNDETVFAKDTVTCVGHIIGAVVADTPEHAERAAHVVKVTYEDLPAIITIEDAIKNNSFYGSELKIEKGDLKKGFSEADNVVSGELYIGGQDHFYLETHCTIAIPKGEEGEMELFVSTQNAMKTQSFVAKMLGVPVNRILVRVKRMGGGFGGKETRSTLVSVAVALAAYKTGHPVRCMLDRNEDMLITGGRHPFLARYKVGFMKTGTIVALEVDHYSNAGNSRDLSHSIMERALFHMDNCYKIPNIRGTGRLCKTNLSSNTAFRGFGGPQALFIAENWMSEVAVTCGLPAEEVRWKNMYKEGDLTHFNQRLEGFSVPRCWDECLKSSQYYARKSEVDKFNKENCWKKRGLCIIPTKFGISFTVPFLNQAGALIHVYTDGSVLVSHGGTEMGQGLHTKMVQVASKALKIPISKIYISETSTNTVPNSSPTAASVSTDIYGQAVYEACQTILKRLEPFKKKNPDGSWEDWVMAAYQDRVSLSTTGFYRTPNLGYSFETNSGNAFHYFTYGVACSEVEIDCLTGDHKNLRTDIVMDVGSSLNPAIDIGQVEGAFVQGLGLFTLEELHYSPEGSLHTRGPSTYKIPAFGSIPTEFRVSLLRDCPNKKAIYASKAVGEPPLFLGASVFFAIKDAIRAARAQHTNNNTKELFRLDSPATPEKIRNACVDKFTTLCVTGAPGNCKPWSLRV

Row | Compound | IC50 [1] [nM] | inhibition in vivo at 100 mg/kg [2] [%] | melting point [°C] | inhibition in vivo at 100 mg/kg [3] [%]
1 | N#Cc1cc(-c2ncccc2C(=O)O)ccc1OCC1CCCCC1 [Example 47, 2-(3-Cyano-4-cyclohexylmethoxyphenyl)nicotinic acid] | 24 | 52.6 | 220 to 221 | 46.3
2 | CC(C)(C)CCOc1ccc(-c2ncccc2C(=O)O)cc1C#N [Example 84, 2-[3-Cyano-4-(3,3-dimethylbutoxy)phenyl]nicotinic acid] | 18 | 69.2 | 206 to 207 | 41.4
3 | CC1(COc2ccc(-c3ncccc3C(=O)O)cc2C#N)CCCCC1 [Example 77, 2-[3-Cyano-4-(1-methylcyclohexylmethoxy)phenyl]nicotinic acid] | 24 | 27.8 | 100 to 101 | 39.6
4 | CCC(C)(C)COc1ccc(-c2ncccc2C(=O)O)cc1C#N [Example 72, 2-[3-Cyano-4-(2,2-dimethylbutoxy)phenyl]nicotinic acid] | 28 | 48.5 | 166 to 167 | 34.2
5 | CC(C)(COc1ccc(-c2ncccc2C(=O)O)cc1C#N)c1ccccc1 [Example 78, 2-[3-Cyano-4-(2-methyl-2-phenylpropoxy)phenyl]nicotinic acid] | – | 19.4 | 221 to 222 | 21.6
6 | N#Cc1cc(-c2ncccc2C(=O)O)ccc1OCC1CCCC1 [Example 75, 2-(3-Cyano-4-cyclopentylmethoxyphenyl)nicotinic acid] | 24 | 49.5 | 227 to 228 | 25.7
7 | N#Cc1cc(-c2ncccc2C(=O)O)ccc1OCCCCc1ccccc1 [Example 62, 2-[3-Cyano-4-(4-phenylbutoxy)phenyl]nicotinic acid] | 27 | 43.6 | 163 to 164 | 71.1
8 | CC(C)(C)COc1ccc(-c2ncccc2C(=O)O)cc1C#N [Example 83, 2-[3-Cyano-4-(2,2-dimethylpropoxy)phenyl]nicotinic acid] | 42 | 56.6 | 231 to 232 | 112
9 | Cc1ccccc1CCOc1ccc(-c2ncccc2C(=O)O)cc1C#N [Example 102, 2-[3-Cyano-4-(2-methylphenethyloxy)-phenyl]nicotinic acid] | 53 | 25.2 | – | 28.4
10 | N#Cc1cc(-c2ncccc2C(=O)O)ccc1OCCc1ccccc1C(F)(F)F [Example 56] | 36 | 38.7 | 187 to 188 | 72.1
11 | N#Cc1cc(-c2ncccc2C(=O)O)ccc1OCCCc1ccc(C(F)(F)F)cc1 [Example 59, 2-{3-Cyano-4-[3-(4-trifluoromethylphenyl)propoxy]phenyl}nicotinate] | 42 | 29.3 | 183 to 184 | 53.2

Reference: patent US20100004459A1, “2-PHENYLNICOTINIC ACID DERIVATIVE” (NIPPON ZOKI PHARMACEUTICAL CO., LTD., priority 2006, published 2010)
